One data set concerns the target T1, human β3-AR (Homo sapiens, UniProt P13945).
T1 construct: Full-length β3-AR clones (402 amino acids) containing the last 6 amino acids of hβ3-AR; expressed in transfected cells; host or cells: CHO (Chinese hamster ovary) cells
Description: cAMP accumulation (SPA) in CHO cells transfected with human β3-AR. It is filed as cell-based. Conditions: for IA(β3): maximal response of compound relative to maximal response of isoproterenol at 10^−5 M. How it is done:
The ability of the compounds of this invention to treat or inhibit disorders related to insulin resistance or hyperglycemia was confirmed with representative compounds of this invention in the following standard pharmacological test procedures, which measured the binding selectivity of the β1-, β2-, and β3-AR. Binding to the receptors was measured in Chinese Hamster ovary (CHO) cells that were transfected with β1-, β2-, and β3-AR's. The following briefly summarizes the procedures used and results obtained.
Cloning of Human β3-AR Genomic DNA: cDNA was constructed by ligating four polymerase chain reaction (PCR) products using the following primers: an ATG-Narl fragment, sense primer 5′-[…]3′ and anti-sense primer 5′[…]3′; a Narl-Accl fragment, 5′[…]3′ as sense and 5′[…]3′ as anti-sense primer; an Accli—Styl fragment, sense primer 5′[…]3′ and anti-sense primer 5′[…]3′ and a Styl-TAG fragment, with sense primer 5′ […]3′ and anti-sense primer 5′ […]3′ . The corresponding primer sequences are described in Mantzoros, C. S., et.al., Diabetes, 1996, 45, 909-914. The four fragments are ligated into a pUC 18 plasmid (Gibco-BRL) and sequenced. Full-length β3-AR clones (402 amino acids) containing the last 6 amino acids of hβ3-AR are prepared with the β3-βARpcDNA3 from ATTC.
Binding Procedure: Clones expressing receptor levels of 70 to 110 fmoles/mg protein were used in the test procedures. CHO cells were grown in 24-well tissue culture plates in Dulbecco's Modified Eagle Media with 10% fetal bovine serum, MEM non-essential amino acids, Penicillin—Streptomycin and Geneticin. On the day of test procedure, growth medium was replaced with preincubation media (Dulbecco's Modified Eagle Media) and incubated for 30 minutes at 37° C. Pre-incubation medium was replaced with 0.2 ml treatment medium containing DMEM media containing 250 μM IBMX (isobutyl-1-methylxantine) plus 1 mM ascorbic acid with test compound dissolved in DMSO. Test compounds were assayed over a concentration range of 10^−9 M to 10^−5 M for β3-AR transfected cells and 10^−8 to 10^−4 M for β1-AR and β2-AR transfected cells. Isoproterenol (10^−5 M) was used as an internal standard for comparison of activity. Cells were incubated at 37° C. on a rocker for 30 min with the β3-AR transfected cells and 15 min with β1-AR and β2-AR transfected cells. Incubation was stopped by the addition of 0.2N HCl and the acid was neutralized with 2.5N NaOH. The plates, containing the cells and neutralized media, were stored at −20° C. until ready to test for cAMP using the SPA test kit (Amersham).
Data Analysis and Results: Data collected from the SPA test procedure were analyzed as percent of the maximal isoproterenol response at 10^−5 M. Activity curves were plotted using the SAS statistical and graphics software.
(Changes in cAMP serve as a functional read-out for many G protein-coupled receptors.)

Where [1] appears, read: CHO cells transfected with human β3-AR, cAMP by SPA, 30 min at 37° C., 10^−9 M to 10^−5 M, read-out: EC50(β3).
Where [2] appears, read: CHO cells transfected with human β3-AR.

The structures appear in SMILES notation. Read-outs that look alike come from different tables or passages of the source.

T1 sequence (P13945 whole entry): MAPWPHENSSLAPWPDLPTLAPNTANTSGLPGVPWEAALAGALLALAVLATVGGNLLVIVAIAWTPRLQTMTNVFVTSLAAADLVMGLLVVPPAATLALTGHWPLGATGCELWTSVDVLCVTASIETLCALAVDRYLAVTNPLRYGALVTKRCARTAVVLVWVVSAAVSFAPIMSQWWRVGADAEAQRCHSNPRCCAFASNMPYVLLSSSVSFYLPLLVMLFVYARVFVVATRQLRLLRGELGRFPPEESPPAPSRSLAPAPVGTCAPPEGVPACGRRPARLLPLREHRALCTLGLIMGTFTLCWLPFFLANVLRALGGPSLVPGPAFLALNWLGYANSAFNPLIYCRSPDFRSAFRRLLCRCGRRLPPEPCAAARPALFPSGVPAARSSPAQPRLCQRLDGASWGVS

The EC50 is the concentration at which the effect is half-maximal. The term melting point denotes the temperature of the solid-liquid transition. Consider `CC(Cc1ccc(NC2=NS(=O)(=O)N=C2NCCc2ccc(F)cc2)cc1)NC[C@H](O)COc1ccc(O)cc1` (stereo partly drawn) [Compound 37], for which the melting point lay within 126 to 131 °C. The EC50 on human β3-AR (setting [1]) was determined as 6 nM. The “IA(β3)” value on human β3-AR (setting [2]) turned out to be 0.87.

Compound `CCCCCCCCNc1c(Nc2ccc(CC(C)NC[C@H](O)COc3ccccc3)cc2)c(=O)c1=O` (stereo partly drawn) [Compound 24, 3-{4-[2-((2S)-2-Hydroxy-3-phenoxy-propylamino)-propyl]-phenylamino}-4-octylamino-cyclobut-3-ene-1,2-dione] came in with a melting point of 146 to 155 °C. Also, at human β3-AR (setting [1]), the EC50 was found to be 81 nM. On human β3-AR (setting [2]), the “IA(β3)” value is given as 0.41.

`CCCCCCCCNC1=NS(=O)(=O)N=C1Nc1ccc(CC(C)NC[C@H](O)COc2ccc3c(c2)OCO3)cc1` (stereo partly drawn) [Compound 35, (2S)-1-(1,3-Benzodioxol-5-yloxy)-3-{1-methyl-2-[4-(4-octylamino-1,1-dioxo-1H-1.lambda(6).-[1,2,5]thiadiazol-3-ylamino)-phenyl]-ethylamino}-propan-2-ol] registered a melting point of 81 to 86 °C. Moreover, the EC50 at human β3-AR (setting [1]) came out at 125 nM. Moreover, at human β3-AR (setting [2]), the “IA(β3)” value is 0.51.

Consider `CCCCNc1c(Nc2ccc(CC(C)NC[C@H](O)c3cccc(Cl)c3)cc2)c(=O)c1=O` (stereo partly drawn) [Compound 1, 3-Butylamino-4-(4-{2-[(2R)-2-(3-chloro-phenyl)-2-hydroxy-ethylamino]-propyl}-phenylamino)-cyclobut-3-ene-1,2-dione], for which the melting point was 176 to 179 °C. In addition, at human β3-AR, a half-maximal response (EC50) required 115 nM. At human β3-AR (setting [2]), the “IA(β3)” value is 0.16.

For `CCCCCCCCCCNc1c(Nc2ccc(CC(C)NC[C@H](O)COc3ccccc3)cc2)c(=O)c1=O` (stereo partly drawn) [Compound 23], the melting point was in the range of 144 to 155 °C. On human β3-AR (setting [1]), the EC50 came out at 1360 nM. Besides, the “IA(β3)” value on human β3-AR (setting [2]) is 0.64.
